[Cl-].[Cl-].[Zn+2] [ZnCl2, zinc chloride]
Solubility (g/100 g H2O, 25° C.) (25° C.): 408 g/100 g H2O
Calculated Soluble Zinc (at use level in formula): 0.72%
Total Zinc Conc. (at use level in formula): 0.72%

[O]=[Zn] [ZnO, zinc oxide]
Total Zinc Conc. (at use level in formula): 0.80%
